Laboratory results taken from US12157755B2, “CD73 inhibitor, preparation method therefor and application thereof” (Abbisko Therapeutics Co., Ltd., priority 2019, dated 2024).

Key:
[1] = target: T1, CD73 enzymatic activity expressed on the cell surface of MDA-MB-231 cells (Homo sapiens, UniProt P21589); assay: Inhibition of CD73 enzymatic activity on the cell surface (Cell Titer Glo (CTG) experiment), MDA-MB-231 cells; type: cell-based; details: MDA-MB-231 cells endogenously expressing CD73, AMP, 37° C. for 2 hours, CTG readout; read-out: Cellular activity IC50
T1 construct: Human breast cancer cells MDA-MB-231 that endogenously express CD73 were used; host or cells: MDA-MB-231
T1 sequence (P21589 27-549): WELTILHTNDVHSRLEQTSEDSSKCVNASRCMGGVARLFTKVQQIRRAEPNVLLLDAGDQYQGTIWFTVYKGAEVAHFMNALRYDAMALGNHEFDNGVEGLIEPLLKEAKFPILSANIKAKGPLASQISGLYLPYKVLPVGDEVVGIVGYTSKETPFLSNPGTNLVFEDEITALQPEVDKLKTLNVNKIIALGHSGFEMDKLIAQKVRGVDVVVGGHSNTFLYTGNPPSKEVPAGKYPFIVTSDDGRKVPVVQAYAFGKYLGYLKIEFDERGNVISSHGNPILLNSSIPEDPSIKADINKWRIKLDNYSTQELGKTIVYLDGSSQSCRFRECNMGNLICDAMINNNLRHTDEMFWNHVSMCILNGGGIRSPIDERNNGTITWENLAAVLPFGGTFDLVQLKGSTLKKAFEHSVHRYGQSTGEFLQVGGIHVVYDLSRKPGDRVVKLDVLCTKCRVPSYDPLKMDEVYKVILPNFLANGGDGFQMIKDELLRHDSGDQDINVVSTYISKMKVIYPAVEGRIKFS
Description: Human breast cancer cells MDA-MB-231 that endogenously express CD73 were used in the present invention to evaluate the inhibition of the compound against the CD73 enzymatic activity expressed on the cell surface. The cells used were from the Cell Bank of the Chinese Academy of Sciences. The specific experimental procedures were as follows:
1. Before the test, MDA-MB231 cells were seeded to a 96-well plate at 20000 cells/well;
2. In RPMI1640, 10% fetal bovine serum (Gibco, 10099-141), placed in a 5% CO2 incubator at 37° C. overnight (the cells were washed three times by using a serum-free RPMI medium right before the test):
3. 50 μl of serum-free media containing the compounds at different concentrations were added to the cells and incubated for 15 minutes;
4. 25 μL of 1.2 mM AMP was added for incubation at 37° C. for 2 hours, 25 μL of supernatant was then collected from the cells and mix with 25 μL of 100 μM ATP, and then the concentration of AMP in the samples was determined by CTG (Promega, #G7573);
5. Then, a reduction ratio of the substrate AMP level in the cell culture supernatant collected after the reaction was quantitatively determined to evaluate the inhibitory effects of the examples of the present invention and the positive compounds against the CD73 enzymatic activity on the cell surface;
6. Finally, the concentration of the compound leading to half maximal inhibition of enzymatic activity (IC50) was determined using a four-parameter non-linear logistic model curve fit in Graphpad Prism.

CD73 = target: T2, CD73 (Homo sapiens, UniProt P21589); assay: In vitro enzymatic activity against CD73 (malachite green test using soluble CD73); type: biochemical; details: soluble CD73 36 ng/mL, 50 μM AMP, 30 minutes at 25° C.
T2 construct: purchased R&D systems 5795-EN-010
T2 sequence (P21589 27-547 limits assumed): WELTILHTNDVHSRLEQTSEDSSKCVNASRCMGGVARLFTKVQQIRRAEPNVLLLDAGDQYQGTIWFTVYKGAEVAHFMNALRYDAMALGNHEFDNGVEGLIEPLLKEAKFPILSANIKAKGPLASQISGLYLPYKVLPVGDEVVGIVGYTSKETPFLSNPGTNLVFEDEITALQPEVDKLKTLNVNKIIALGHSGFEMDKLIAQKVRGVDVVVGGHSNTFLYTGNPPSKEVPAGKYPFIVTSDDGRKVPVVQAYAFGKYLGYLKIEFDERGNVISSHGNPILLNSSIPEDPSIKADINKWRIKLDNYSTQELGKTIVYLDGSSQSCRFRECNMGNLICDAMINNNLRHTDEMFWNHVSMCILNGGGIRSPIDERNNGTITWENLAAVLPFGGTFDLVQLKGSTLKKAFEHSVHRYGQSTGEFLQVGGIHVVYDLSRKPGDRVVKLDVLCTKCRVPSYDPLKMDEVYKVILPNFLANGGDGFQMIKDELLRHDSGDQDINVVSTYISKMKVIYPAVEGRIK
Description: The malachite green test using soluble CD73, which is synthesized in vitro was used in the present invention to determine the characteristics of inhibitory activity of the compounds against CD73. The specific experimental procedures were as following:
1. The enzyme reaction in this experiment was carried out in 384-well plates, and CD73 (R&D systems #5795-EN-010) at a concentration of 36 ng/mL, the compounds at different concentrations and 50 μM AMP were incubated for 30 minutes at 25° C. in a 40 uL reaction system (consisting of 25 mM Tris pH 7.5, 5 mM MgCl2, and 0.005% Tween-20);
2. Then, 10 μL of malachite green solution (Sigma) was added to each well to terminate the reaction;
3. The concentration of resulting inorganic phosphate was determined according to the instructions of the reagent manufacturer;
4. The enzymatic activity of CD73 was calculated based on the concentration of the product, and then IC50 values were determined by non-linear regression analysis of the inhibition percentage of the compounds of the present invention at different concentrations.

IC50 [1] [nM] | IC50 (CD73) [nM] | SMILES
0.373 | 6.8 | C[C@@H](Nc1nc(Cl)nc2c1cnn2[C@@H]1O[C@H](COP(=O)(O)CP(=O)(O)O)[C@@H](O)[C@H]1O)c1ccc(S(F)(F)(F)(F)F)cc1 [Example 1, (((((2R,3S,4R,5R)-5-(6-chloro-4-(((R)-1-(4-(pentafluoro-λ^6-sulfanyl)phenyl)ethyl)amino)-1H-pyrazolo[3,4-d]pyrimidin-1-yl)-3,4-dihydroxytetrahydrofuran-2-yl)methoxy)(hydroxy)phosphoryl)methyl)phosphonic acid]
0.73 | 20.6 | C[C@H](Nc1nc(Cl)nc2c1cnn2[C@@H]1O[C@H](COP(=O)(O)CP(=O)(O)O)[C@@H](O)[C@H]1O)c1ccc(S(F)(F)(F)(F)F)cc1 [Example 2, (((((2R,3S,4R,5R)-5-(6-chloro-4-(((S)-1-(4-(pentafluoro-λ^6-sulfanyl)phenyl)ethyl)amino)-1H-pyrazolo[3,4-d]pyrimidin-1-yl)-3,4-dihydroxytetra-hydrofuran-2-yl)methoxy)(hydroxy)phosphoryl)methyl)phosphonic acid]
0.722 | 1.6 | C[C@@H](Nc1nc(Cl)nc2c1cnn2[C@@H]1O[C@H](COP(=O)(O)CP(=O)(O)O)[C@@H](O)[C@H]1O)c1ccc(S(F)(F)(F)(F)F)cc1F [Example 3, (((((2R,3S,4R,5R)-5-(6-chloro-4-(((R)-1-(2-fluoro-4-(pentafluoro-λ^6-sulfanyl)phenyl)ethyl)amino)-1H-pyrazolo[3,4-d]pyrimidin-1-yl)-3,4-dihydroxytetrahydrofuran-2-yl)methoxy)(hydroxy)phosphoryl)methyl)phosphonic acid]
0.9 | 23.4 | C[C@H](Nc1nc(Cl)nc2c1cnn2[C@@H]1O[C@H](COP(=O)(O)CP(=O)(O)O)[C@@H](O)[C@H]1O)c1ccc(S(F)(F)(F)(F)F)cc1F [Example 4, (((((2R,3S,4R,5R)-5-(6-chloro-4-(((S)-1-(2-fluoro-4-(pentafluoro-λ^6-sulfanyl)phenyl)ethyl)amino)-1H-pyrazolo[3,4-d]pyrimidin-1-yl)-3,4-dihydroxytetrahydrofuran-2-yl)methoxy)(hydroxy)phosphoryl)methyl)phosphonic acid]
0.49 | 36.5 | C[C@H](Nc1cc(Cl)nc2c1cnn2[C@@H]1O[C@H](COP(=O)(O)CP(=O)(O)O)[C@@H](O)[C@H]1O)c1ccc(S(F)(F)(F)(F)F)cc1F [Example 5, (((((2R,3S,4R,5R)-5-(6-chloro-4-(((S)-1-(2-fluoro-4-(pentafluoro-λ^6-sulfanyl)phenyl)ethyl)amino)-1H-pyrazolo[3,4-b]pyridin-1-yl)-3,4-dihydroxytetrahydrofuran-2-yl)methoxy)(hydroxy)phosphoryl)methyl)phosphonic acid]
0.302 | 2.4 | C[C@H](Nc1cc(Cl)nc2c1cnn2[C@@H]1O[C@H](COP(=O)(O)CP(=O)(O)O)[C@@H](O)[C@H]1O)c1ccc(S(F)(F)(F)(F)F)cc1 [Example 6, (((((2R,3S,4R,5R)-5-(6-chloro-4-(((S)-1-(4-(pentafluoro-λ^6-sulfanyl)phenyl)ethyl)amino)-1H-pyrazolo[3,4-b]pyridin-1-yl)-3,4-dihydroxytetrahydrofuran-2-yl)methoxy)(hydroxy)phosphoryl)methyl) phosphonic acid]
1.61 | 15.1 | C[C@@H](Nc1cc(Cl)nc2c1cnn2[C@@H]1O[C@H](COP(=O)(O)CP(=O)(O)O)[C@@H](O)[C@H]1O)c1ccc(S(F)(F)(F)(F)F)cc1 [Example 7, (((((2R,3S,4R,5R)-5-(6-chloro-4-(((R)-1-(4-(pentafluoro-λ^6-sulfanyl)phenyl)ethyl)amino)-1H-pyrazolo[3,4-b]pyridin-1-yl)-3,4-dihydroxytetrahydrofuran-2-yl)methoxy)(hydroxy)phosphoryl)methyl) phosphonic acid]
0.59 | 2 | C[C@H](Nc1cc(Cl)nc2c1cnn2[C@@H]1O[C@H](COP(=O)(O)CP(=O)(O)O)[C@@H](O)[C@H]1O)c1cccc(S(F)(F)(F)(F)F)c1 [Example 8, (((((2R,3S,4R,5R)-5-(6-chloro-4-(((S)-1-(3-(pentafluoro-λ^6-sulfanyl)phenyl)ethyl)amino)-1H-pyrazolo[3,4-b]pyridin-1-yl)-3,4-dihydroxytetrahydrofuran-2-yl)methoxy)(hydroxy)phosphoryl)methyl) phosphonic acid]
1.45 | 4.8 | C[C@@H](Nc1cc(Cl)nc2c1cnn2[C@@H]1O[C@H](COP(=O)(O)CP(=O)(O)O)[C@@H](O)[C@H]1O)c1cccc(S(F)(F)(F)(F)F)c1 [Example 9, (((((2R,3S,4R,5R)-5-(6-chloro-4-(((R)-1-(3-(pentafluoro-λ^6-sulfanyl)phenyl)ethyl)amino)-1H-pyrazolo[3,4-b]pyridin-1-yl)-3,4-dihydroxytetrahydrofuran-2-yl)methoxy)(hydroxy)phosphoryl)methyl) phosphonic acid]
0.21 | 3.1 | O=P(O)(O)CP(=O)(O)OC[C@H]1O[C@@H](n2ncc3c(NCc4ccccc4S(F)(F)(F)(F)F)cc(Cl)nc32)[C@H](O)[C@@H]1O [Example 10, (((((2R,3S,4R,5R)-5-(6-chloro-4-((2-(pentafluoro-λ^6-sulfanyl)phenylmethyl)amino)-1H-pyrazolo[3,4-b]pyridin-1-yl)-3,4-dihydroxytetrahydrofuran-2-yl)methoxy)(hydroxy)phosphoryl)methyl) phosphonic acid]
0.99 | 31.6 | C[C@@H](Nc1cc(Cl)nc2c1cnn2[C@@H]1O[C@H](COP(=O)(O)CP(=O)(O)O)[C@@H](O)[C@H]1O)c1ccc(S(F)(F)(F)(F)F)cc1F [Example 11, (((((2R,3S,4R,5R)-5-(6-chloro-4-(((R)-1-(2-fluoro-4-(pentafluoro-λ^6-sulfanyl)phenyl)ethyl)amino)-1H-pyrazolo[3,4-b]pyridin-1-yl)-3,4-dihydroxytetrahydrofuran-2-yl)methoxy)(hydroxy)phosphoryl)methyl) phosphonic acid]
3.18 | – | O=P(O)(O)CP(=O)(O)OC[C@H]1C[C@@H](c2ccc3c(N[C@H]4CCc5ccccc54)nc(Cl)nn23)[C@H](O)[C@@H]1O [Example 26, (((((1R,2R,3S,4S)-4-(2-chloro-4-(((S)-2,3-dihydro-1H-inden-1-yl)amino)pyrrolo[2,1-f][1,2,4]triazin-7-yl)-2,3-dihydroxy-cyclopentyl)methoxy)(hydroxy)phosphoryl)methyl)phosphonic acid]
